Among the data in patent US20100317647A1 (priority 2009, published 2010) are IC50 values, retold here.

The structures appear in SMILES notation.

Chain of human Cat S (P25774 115-331): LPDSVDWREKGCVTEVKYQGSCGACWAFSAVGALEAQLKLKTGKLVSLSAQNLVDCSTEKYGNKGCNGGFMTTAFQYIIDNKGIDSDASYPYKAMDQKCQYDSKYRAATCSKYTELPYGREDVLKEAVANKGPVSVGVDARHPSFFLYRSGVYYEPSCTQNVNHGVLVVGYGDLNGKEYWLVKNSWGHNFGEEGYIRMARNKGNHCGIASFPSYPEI

The assay has as its target human Cat S (Homo sapiens, UniProt P25774). Briefly: Cathepsin enzyme inhibition assay (fluorogenic peptide substrate cleavage). It is filed as biochemical. Conditions: human Cat S 1 nM; substrate Z-Val-Val-Arg-AMC 20 μM; pH 6.5; fluorescence over 20 minutes. The method in brief:
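IC50 values derived from fluorescence increase (ex 360 nm, em 465 nm) monitored for 20 minutes after substrate addition. Enzyme held at 1 nM with 20 μM Z-Val-Val-Arg-AMC, in pH 6.5 potassium phosphate buffer containing DTT, EDTA and Triton X-100.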
Turning to `Cn1cc(-c2ccc(S(=O)(=O)[C@H]3C[C@@H](OC4CCS(=O)(=O)CC4)[C@H](C(=O)NC4(C#N)CC4)C3)c(C(F)(F)F)c2)cn1` (racemic) [Example 184, (1R,2R,4R) and (1S,2S,4S)-2-[(tetrahydro-1,1-dioxo-2H-thiopyran-4-yl)oxy]-4-[4-(1-methyl-1H-pyrazol-4-yl)-2-trifluoromethyl-benzenesulfonyl]-cyclopentanecarboxylic acid (1-cyano-cyclopropyl)-amide], the IC50 was 0.16 nM. To `CO[C@@H]1C[C@H](S(=O)(=O)c2ccc(-c3cnn(CC(=O)O)c3)cc2C(F)(F)F)C[C@H]1C(=O)NC1(C#N)CC1` (racemic) [Example 185, (4-{4-[(1R,3R,4R) and (1S,3S,4S)-3-(1-Cyano-cyclopropylcarbamoyl)-4-methoxy-cyclopentanesulfonyl]-3-trifluoromethyl-phenyl}-pyrazol-1-yl)-acetic acid] belongs 0.725 nM; to `CO[C@@H]1C[C@H](S(=O)(=O)c2ccc(N3CCN(CC(F)(F)F)CC3)cc2C(F)(F)F)C[C@H]1C(=O)NC1(C#N)CC1` (racemic) [Example 193, (1R,2R,4R) and (1S,2S,4S)-2-Methoxy-4-{4-[4-(2,2,2-trifluoro-ethyl)-piperazin-1-yl]-2-trifluoromethyl-benzenesulfonyl}-cyclopentanecarboxylic acid (1-cyano-cyclopropyl)-amide], 1.67 nM. With `CO[C@@H]1C[C@H](S(=O)(=O)c2ccc(-c3cnn(CC(N)=O)c3)cc2C(F)(F)F)C[C@H]1C(=O)NC1(C#N)CC1` (racemic) [Example 194, (1R,2R,4R) and (1S,2S,4S)-4-[4-(1-Carbamoylmethyl-1H-pyrazol-4-yl)-2-trifluoromethyl-benzenesulfonyl]-2-methoxy-cyclopentanecarboxylic acid (1-cyano-cyclopropyl)-amide] the figure was 0.713 nM.

Turning to `N#CC1(NC(=O)[C@@H]2C[C@@H](S(=O)(=O)c3ccc(Br)cc3C(F)(F)F)C[C@H]2OC2CCCC2)CC1` (racemic) [Example 195, (1R,2R,4R) and (1S,2S,4S)-4-(4-Bromo-2-trifluoromethyl-benzenesulfonyl)-2-cyclopentyloxy-cyclopentanecarboxylic acid (1-cyano-cyclopropyl)-amide], half-maximal inhibition (IC50) was put at 0.917 nM. To `CO[C@@H]1C[C@H](S(=O)(=O)c2ccc(N3CC(F)(F)C3)cc2C(F)(F)F)C[C@H]1C(=O)NC1(C#N)CC1` (racemic) [Example 206, (1R,2R,4R) and (1S,2S,4S)-4-[4-(3,3-Difluoro-azetidin-1-yl)-2-trifluoromethyl-benzenesulfonyl]-2-methoxy-cyclopentanecarboxylic acid (1-cyano-cyclopropyl)-amide] belongs 1.4 nM; to `CO[C@@H]1C[C@H](S(=O)(=O)c2ccc(N3CCC(O)CC3)cc2C(F)(F)F)C[C@H]1C(=O)NC1(C#N)CC1` (racemic) [Example 207, (1R,2R,4R) and (1S,2S,4S)-4-[4-(4-Hydroxy-piperidin-1-yl)-2-trifluoromethyl-benzenesulfonyl]-2-methoxy-cyclopentanecarboxylic acid (1-cyano-cyclopropyl)-amide], 0.895 nM; to `Cc1cc(-c2ccc(S(=O)(=O)[C@H]3C[C@@H](OC4CCC4)[C@H](C(=O)NC4(C#N)CC4)C3)c(C(F)(F)F)c2)ccn1` (racemic) [Example 210, (1R,2R,4R) and (1S,2S,4S)-2-Cyclobutoxy-4-[4-(2-methyl-pyridin-4-yl)-2-trifluoromethyl-benzenesulfonyl]-cyclopentanecarboxylic acid (1-cyano-cyclopropyl)-amide], 0.21 nM. To `Cn1cc(-c2ccc(S(=O)(=O)[C@H]3C[C@@H](OC4CCC4)[C@H](C(=O)NC4(C#N)CC4)C3)c(C(F)(F)F)c2)cn1` (racemic) [Example 211, (1R,2R,4R) and (1S,2S,4S)-2-Cyclobutoxy-4-[4-(1-methyl-1H-pyrazol-4-yl)-2-trifluoromethyl-benzenesulfonyl]-cyclopentanecarboxylic acid (1-cyano-cyclopropyl)-amide] belongs 0.255 nM. For `Cc1cc(-c2ccc(S(=O)(=O)[C@H]3C[C@@H](OC4CCCC4)[C@H](C(=O)NC4(C#N)CC4)C3)c(C(F)(F)F)c2)ccn1` (racemic) [Example 212, (1R,2R,4R) and (1S,2S,4S)-2-Cyclopentyloxy-4-[4-(2-methyl-pyridin-4-yl)-2-trifluoromethyl-benzenesulfonyl]-cyclopentanecarboxylic acid (1-cyano-cyclopropyl)-amide], the IC50 was 0.215 nM. To `Cn1cc(-c2ccc(S(=O)(=O)[C@H]3C[C@@H](OC4CCCC4)[C@H](C(=O)NC4(C#N)CC4)C3)c(C(F)(F)F)c2)cn1` (racemic) [Example 213, (1R,2R,4R) and (1S,2S,4S)-2-Cyclopentyloxy-4-[4-(1-methyl-1H-pyrazol-4-yl)-2-trifluoromethyl-benzenesulfonyl]-cyclopentanecarboxylic acid (1-cyano-cyclopropyl)-amide] belongs 0.16 nM. With `CO[C@@H]1C[C@H](S(=O)(=O)c2ccc(-c3cnn(CC4(C)COC4)c3)cc2C(F)(F)F)C[C@H]1C(=O)NC1(C#N)CC1` (racemic) [Example 214, (1R,2R,4R) and (1S,2S,4S)-2-Methoxy-4-{4-[1-(3-methyl-oxetan-3-ylmethyl)-1H-pyrazol-4-yl]-2-trifluoromethyl-benzenesulfonyl}-cyclopentanecarboxylic acid (1-cyano-cyclopropyl)-amide] the figure was 2.85 nM; with `CO[C@@H]1C[C@H](S(=O)(=O)c2ccc(N3CCN(C4CC4)CC3)cc2C(F)(F)F)C[C@H]1C(=O)NC1(C#N)CC1` (racemic) [Example 215, (1R,2R,4R) and (1S,2S,4S)-4-[4-(4-Cyclopropyl-piperazin-1-yl)-2-trifluoromethyl-benzenesulfonyl]-2-methoxy-cyclopentanecarboxylic acid (1-cyano-cyclopropyl)-amide], 6.6 nM. To `CNC(=O)Cn1cc(-c2ccc(S(=O)(=O)[C@H]3C[C@@H](OC)[C@H](C(=O)NC4(C#N)CC4)C3)c(C(F)(F)F)c2)cn1` (racemic) [Example 216, (1R,2R,4R) and (1S,2S,4S)-2-Methoxy-4-[4-(1-methylcarbamoylmethyl-1H-pyrazol-4-yl)-2-trifluoromethyl-benzenesulfonyl]-cyclopentanecarboxylic acid (1-cyano-cyclopropyl)-amide] belongs 1.6 nM; to `CO[C@@H]1C[C@H](S(=O)(=O)c2ccc(N3CCN(C(C)=O)CC3)cc2C(F)(F)F)C[C@H]1C(=O)NC1(C#N)CC1` (racemic) [Example 217, (1R,2R,4R) and (1S,2S,4S)-4-[4-(4-Acetyl-piperazin-1-yl)-2-trifluoromethyl-benzenesulfonyl]-2-methoxy-cyclopentanecarboxylic acid (1-cyano-cyclopropyl)-amide], 1.03 nM. Consider `CO[C@@H]1C[C@H](S(=O)(=O)c2ccc(-c3cnn(CC(=O)N(C)C)c3)cc2C(F)(F)F)C[C@H]1C(=O)NC1(C#N)CC1` (racemic) [Example 218, (1R,2R,4R) and (1S,2S,4S)-4-[4-(1-Dimethylcarbamoylmethyl-1H-pyrazol-4-yl)-2-trifluoromethyl-benzenesulfonyl]-2-methoxy-cyclopentanecarboxylic acid (1-cyano-cyclopropyl)-amide], for which the IC50 is 0.92 nM.

In turn, `N#CC1(NC(=O)[C@@H]2C[C@@H](S(=O)(=O)c3ccccc3C(F)(F)F)C[C@H]2OC2CCS(=O)(=O)CC2)CC1` (racemic) [Example 219, (1R,2R,4R) and (1S,2S,4S)-2-[(tetrahydro-1,1-dioxo-2H-thiopyran-4-yl)oxy]-4-(2-trifluoromethyl-benzenesulfonyl)-cyclopentanecarboxylic acid (1-cyano-cyclopropyl)-amide] showed an IC50 of 6.77 nM. As to `N#CC1(NC(=O)[C@@H]2C[C@@H](S(=O)(=O)c3ccccc3C(F)(F)F)C[C@H]2OC2CCC2)CC1` (racemic) [Example 220, (1R,2R,4R) and (1S,2S,4S)-2-Cyclobutoxy-4-(2-trifluoromethyl-benzenesulfonyl)-cyclopentanecarboxylic acid (1-cyano-cyclopropyl)-amide], the IC50 is 3.6 nM. The compound `N#CC1(NC(=O)[C@@H]2C[C@@H](S(=O)(=O)c3ccccc3C(F)(F)F)C[C@H]2OC2CCCC2)CC1` (racemic) [Example 221, (1R,2R,4R) and (1S,2S,4S)-2-Cyclopentyloxy-4-(2-trifluoromethyl-benzenesulfonyl)-cyclopentanecarboxylic acid (1-cyano-cyclopropyl)-amide] had an IC50 of 8.35 nM.

Take `N#CC1(NC(=O)[C@@H]2C[C@@H](S(=O)(=O)c3ccccc3Cl)C[C@H]2OCc2ccc(Cl)cc2)CC1` (racemic) [Example 222, (1R,2R,4R) and (1S,2S,4S)-4-(2-Chloro-benzenesulfonyl)-2-(4-chloro-benzyloxy)-cyclopentanecarboxylic acid (1-cyano-cyclopropyl)-amide]: the IC50 came out at 5.8 nM.

In turn, `CCNC(=O)Cn1cc(-c2ccc(S(=O)(=O)[C@H]3C[C@@H](OC)[C@H](C(=O)NC4(C#N)CC4)C3)c(C(F)(F)F)c2)cn1` (racemic) [Example 223, (1R,2R,4R) and (1S,2S,4S)-4-[4-(1-Ethylcarbamoylmethyl-1H-pyrazol-4-yl)-2-trifluoromethyl-benzenesulfonyl]-2-methoxy-cyclopentanecarboxylic acid (1-cyano-cyclopropyl)-amide] had an IC50 of 0.31 nM. With `CC(C)N1CCN(c2ccc(S(=O)(=O)[C@H]3C[C@@H](OC4CCCC4)[C@H](C(=O)NC4(C#N)CC4)C3)c(C(F)(F)F)c2)CC1` (racemic) [Example 229, (1R,2R,4R) and (1S,2S,4S)-2-Cyclopentyloxy-4-[4-(4-isopropyl-piperazin-1-yl)-2-trifluoromethyl-benzenesulfonyl]-cyclopentanecarboxylic acid (1-cyano-cyclopropyl)-amide] the figure was 0.007 nM.

Broadly, the IC50 is the concentration that inhibits the measured activity by half. A high value points to a need for much substance.
